Results reported in patent US11840535B2, “Alkynyl(hetero)aromatic compound for inhibiting protein kinase activity” (Shenzhen TargetRx, Inc., priority 2018, dated 2023).

Tests used:
ABL^T315I = ABL^T315I (Homo sapiens (Human), UniProt P00519, T315I); experiment: Biochemical kinase analysis, ABL T315I
Experimental: (§1) Reagents and materials: ABL (ThermoFisher, Cat. No PV3585), ABL^T315I (Thermo Fisher, Cat. No. PR7429B), ATP (Sigma, Cat. No. A7699-1G), DMSO (Sigma, Cat. No. D2650), 96-well plate (Corning, Cat. No. 3365), 384-well plate (Greiner, Cat. No. 784076), buffer solution (Thermo Fisher, Cat. No. PR4876B).
(§2) Compound formulation: The test compounds were dissolved in DMSO to prepare a 20 mM stock solution. Before use, the compounds were diluted in DMSO to 0.1 mM, and diluted into 11 concentrations with a 3-fold gradient. When addition, diluentions of 4-fold final concentration were then made with buffer solution.
(§3) Kinase assay method: After preparing the buffer, the enzyme was mixed with pre-formulated and diluted compounds of different concentrations in duplicate for each concentration, and placed at room temperature for 30 minutes. The corresponding substrate and ATP were added thereto, and reacted at room temperature for 60 minutes (both a negative and a positive control were set). After the reaction, antibody was added for detection, Envision detection was carried out after 60 minutes incubation at room temperature, and data was collected. Data analysis and fitting were made according to XLfit5 software, wherein, A represents IC50≤5 nM, B represents IC50 is 5-50 nM, C represents IC50 is 50-100 nM, D represents IC50>100 nM.

ABL = ABL (Homo sapiens (Human), UniProt P00519); experiment: Biochemical kinase analysis, ABL
Experimental: as §1, §2, §3

[1] = test system: Ba/F3 Bcr-Abl T315I cells; experiment: Cell proliferation analysis, Ba/F3 Bcr-Abl T315I; type: cell-based; details: for IC50: Mus musculus, BaF3, 72 h, 3 days, CellTiter-Glo; for Selectivity [Ba/F3 (parental/Bcr-Abl ^T315I)]: ratio of Ba/F3 parental to Ba/F3 Bcr-Abl T315I
Experimental: (§4) The inhibitory effect of the example compounds on Ba/F3, Ba/F3 Bcr-Abl T315I cell activity was determined.
(§5) Materials and reagents: RPMI-1640 medium (GIBCO, Catalog No. A10491-01), fetal bovine serum (GIBCO, Catalog No. 10099141), antibiotics (Penicillin-Streptomycin), IL-3 (PeproTech), promycin; cell lines: Ba/F3, Ba/F3 Bcr-Abl T315I (Purchased from American type culture collection, ATCC), live cell detection kit […] (Promega, Catalog No. G7572), 96-well black wall transparent flat bottom cell culture plate (Corning, Catalog No. 3340).
(§6) Test method: 1. Preparation of cell plate: Ba/F3, Ba/F3 Bcr-Abl T315I cells were respectively seeded in 96-well plates, and 8 ng/ml IL-3 was added to the Ba/F3 cells, and the cell plates were placed in a carbon dioxide incubator and cultured overnight. 2. The test compounds were dissolved in DMSO, 9 compound concentrations were made with a 3.16-fold gradient dilution in triplicate. 3. Treatment of the cells with compounds: The compounds were transferred to the cell plate with a starting concentration of 10 μM. The cell plate was placed in a carbon dioxide incubator for 3 days. 4. Detection: CellTiter-Glo agent was added to the cell plate, and incubated at room temperature for 30 minutes to stabilize the luminous signal. PerkinElmer Envision multi-label analyzer was used for reading, wherein A represents […], B represents IC50 is 10-20 nM, C represents IC50 is 20-50 nM, D represents IC50 is 50-1000 nM, E represents IC50>1000 nM.

Ba/F3 parental cells = experiment: Cell proliferation analysis, Ba/F3 parental; type: cell-based; details: Mus musculus, BaF3, 72 h; 8 ng/ml IL-3, 3 days, CellTiter-Glo
Experimental: as §4, §5, §6

Row | SMILES | IC50 (ABL^T315I) | IC50 (ABL) | IC50 [1] | Selectivity [Ba/F3 (parental/Bcr-Abl ^T315I)] [1] | IC50 (Ba/F3 parental cells)
1 | Cc1ccc(NC(=O)c2ccc(C)c(C(F)(F)F)c2)cc1C#Cc1cn(C2CCCC2)c2ncnc(N)c12 [Example 20, N-(3-((4-amino-7-cyclopentyl-7H-pyrrolo[2,3-d]pyrimidin-5-yl)ethynyl)-4-methylphenyl)-4-methyl-3-(trifluoromethyl)benzamide] | 50 to 100 nM | 5 to 50 nM | – | – | –
2 | CCn1cc(C#Cc2cc(C(=O)Nc3cc(-n4cnc(C)c4)cc(C(F)(F)F)c3)ccc2C)c2c(N)ncnc21 [Example 10, 3-((4-amino-7-ethyl-7H-pyrrolo[2,3-d]pyrimidin-5-yl)ethynyl)-4-methyl-N-(3-(4-methyl-1H-imidazol-1-yl)-5-(trifluoromethyl)phenyl)benzamide] | 5 to 50 nM | 5 to 50 nM | 10 to 20 nM | 150~500 | > 1000 nM
3 | Cc1cn(-c2cc(NC(=O)c3ccc(C)c(C#Cc4cn(C)c5ncnc(N)c45)c3)cc(C(F)(F)F)c2)cn1 [Example 11, 3-((4-amino-7-methyl-7H-pyrrolo[2,3-d]pyrimidin-5-yl)ethynyl)-4-methyl-N-(3-(4-methyl-1H-imidazol-1-yl)-5-(trifluoromethyl)phenyl)benzamide] | 5 to 50 nM | ≤ 5 nM | 10 to 20 nM | >500 | > 1000 nM
4 | Cc1ccc(C(=O)Nc2cccc(C(F)(F)F)c2)cc1C#Cc1cn(C(C)C)c2ncnc(N)c12 [Example 13, 3-((4-amino-7-isopropyl-7H-pyrrolo[2,3-d]pyrimidin-5-yl)ethynyl)-4-methyl-N-(3-(trifluoromethyl)phenyl)benzamide] | 5 to 50 nM | 5 to 50 nM | 20 to 50 nM | 100~150 | > 1000 nM
5 | CCc1nc(C#Cc2cc(C(=O)Nc3cccc(C(F)(F)F)c3)ccc2C)c2c(N)nccn12 [Example 2, 3-((8-amino-3-ethylimidazo[1,5-a]pyrazin-1-yl)ethynyl)-4-methyl-N-(3-(trifluoromethyl)phenyl)benzamide] | 50 to 100 nM | 5 to 50 nM | – | – | –
6 | CCn1cc(C#Cc2cc(C(=O)Nc3cccc(C(F)(F)F)n3)ccc2C)c2c(N)ncnc21 [Example 7, 3-((4-amino-7-ethyl-7H-pyrrolo[2,3-d]pyrimidin-5-yl)ethynyl)-4-methyl-N-(6-(trifluoromethyl)pyridin-2-yl)benzamide] | 5 to 50 nM | ≤ 5 nM | – | – | –
7 | Cc1ccc(C(=O)Nc2cccc(C(F)(F)F)c2)cc1C#Cc1cn([C@H]2CC[C@H](O)CC2)c2ncnc(N)c12 [Example 23, 3-((4-amino-7-((1r,4r)-4-hydroxycyclohexyl)-7H-pyrrolo[2,3-d]pyrimidin-5-yl)ethynyl)-4-methyl-N-(3-(trifluoromethyl)phenyl)benzamide] | 5 to 50 nM | ≤ 5 nM | – | – | –
8 | CCn1cc(C#Cc2cc(NC(=O)c3cc(-n4cnc(C)c4)cc(C(F)(F)F)c3)ccc2C)c2c(N)ncnc21 [Example 21, N-(3-((4-amino-7-ethyl-7H-pyrrolo[2,3-d]pyrimidin-5-yl)ethynyl)-4-methylphenyl)-3-(4-methyl-1H-imidazol-1-yl)-5-(trifluoromethyl)benzamide] | 5 to 50 nM | ≤ 5 nM | ≤ 10 nM | 50~100 | 50 to 1000 nM

The next lines start with results.

Row | IC50 (ABL^T315I) | IC50 (ABL) | IC50 [1] | SMILES | Selectivity [Ba/F3 (parental/Bcr-Abl ^T315I)] [1] | IC50 (Ba/F3 parental cells)
9 | ≤ 5 nM | ≤ 5 nM | 20 to 50 nM | CCc1nc(C#Cc2cc(C(=O)Nc3ccc(CN4CCN(C)CC4)c(C(F)(F)F)c3)ccc2C)c2c(N)nccn12 [Example 1, 3-((8-amino-3-ethylimidazo[1,5-a]pyrazin-1-yl)ethynyl)-4-methyl-N-(4-((4-methylpiperazin-1-yl)methyl)-3-(trifluoromethyl)phenyl)benzamide] | 50~100 | > 1000 nM
10 | ≤ 5 nM | ≤ 5 nM | – | Cc1ccc(C(=O)Nc2ccc(CN3CCN(C)CC3)c(C(F)(F)F)c2)cc1C#Cc1nc(C)n2ccnc(N)c12 [Example 3, 3-((8-amino-3-methylimidazo[1,5-a]pyrazin-1-yl)ethynyl)-4-methyl-N-(4-((4-methylpiperazin-1-yl)methyl)-3-(trifluoromethyl)phenyl)benzamide] | – | –
11 | 5 to 50 nM | ≤ 5 nM | 10 to 20 nM | Cc1ccc(C(=O)Nc2ccc(C)c(C(F)(F)F)c2)cc1C#Cc1cn([C@H]2CC[C@H](O)CC2)c2ncnc(N)c12 [Example 24, 3-((4-amino-7-((1r,4r)-4-hydroxycyclohexyl)-7H-pyrrolo[2,3-d]pyrimidin-5-yl)ethynyl)-4-methyl-N-(4-methyl-3-(trifluoromethyl)phenyl)benzamide] | 150~500 | > 1000 nM
12 | ≤ 5 nM | ≤ 5 nM | 50 to 1000 nM | Cc1ccc(C(=O)Nc2ccc(CN3CCN(C)CC3)c(C(F)(F)F)c2)cc1C#Cc1nc(C(C)C)n2ccnc(N)c12 [Example 4, 3-((8-amino-3-isopropylimidazo[1,5-a]pyrazin-1-yl)ethynyl)-4-methyl-N-(4-((4-methylpiperazin-1-yl)methyl)-3-(trifluoromethyl)phenyl)benzamide] | 0~50 | > 1000 nM
13 | ≤ 5 nM | ≤ 5 nM | – | CCn1cc(C#Cc2cccc(C(=O)Nc3cccc(C(F)(F)F)c3)c2)c2c(N)ncnc21 [Example 8, 3-((4-amino-7-ethyl-7H-pyrrolo[2,3-d]pyrimidin-5-yl)ethynyl)-N-(3-(trifluoromethyl)phenyl)benzamide] | – | –
14 | ≤ 5 nM | ≤ 5 nM | 10 to 20 nM | CCn1cc(C#Cc2cc(C(=O)Nc3ccc(CN(C)C)c(C(F)(F)F)c3)ccc2C)c2c(N)ncnc21 [Example 9, 3-((4-amino-7-ethyl-7H-pyrrolo[2,3-d]pyrimidin-5-yl)ethynyl)-N-(4-((dimethylamino)methyl)-3-(trifluoromethyl)phenyl)-4-methylbenzamide] | 150~500 | > 1000 nM
15 | ≤ 5 nM | ≤ 5 nM | 20 to 50 nM | Cc1ccc(C(=O)Nc2cccc(C(F)(F)F)c2)cc1C#Cc1cn(C)c2ncnc(N)c12 [Example 14, 3-((4-amino-7-methyl-7H-pyrrolo[2,3-d]pyrimidin-5-yl)ethynyl)-4-methyl-N-(3-(trifluoromethyl)phenyl)benzamide] | 50~100 | > 1000 nM
16 | ≤ 5 nM | ≤ 5 nM | ≤ 10 nM | Cc1ccc(C(=O)Nc2ccc(CN3CCN(C)CC3)c(C(F)(F)F)c2)cc1C#Cc1cn(C)c2ncnc(N)c12 [Example 16, 3-((4-amino-7-methyl-7H-pyrrolo[2,3-d]pyrimidin-5-yl)ethynyl)-4-methyl-N-(4-((4-methylpiperazin-1-yl)methyl)-3-(trifluoromethyl)phenyl)benzamide] | 150~500 | > 1000 nM
17 | ≤ 5 nM | ≤ 5 nM | ≤ 10 nM | Cc1ccc(NC(=O)c2ccc(CN3CCN(C)CC3)c(C(F)(F)F)c2)cc1C#Cc1cn(C)c2ncnc(N)c12 [Example 19, N-(3-((4-amino-7-methyl-7H-pyrrolo[2,3-d]pyrimidin-5-yl)ethynyl)-4-methylphenyl)-4-((4-methylpiperazin-1-yl)methyl)-3-(trifluoromethyl)benzamide] | 150~500 | > 1000 nM
